Values joined by “and” are separate entries in the source; they are usually repeats but may differ in a detail not shown here. Equal values may be shown once. Read-outs that look alike come from different tables or passages of the source.
What was measured:
[1] = molecular target: T1, human delta subtype 2 opioid receptor (Homo sapiens, UniProt P41143); experiment: Human Delta Opioid Receptor Binding Assay (CHO membranes, 3H-Naltrindole); conditions: read-out: hKi δ
T1 construct: purchased Perkin Elmer RBHODM400UA; host or cells: Chinese Hamster Ovary cells (recombinant expression)
Description: This assay is designed to test the ability of a compound to interfere with the binding of tritiated Naltrindole to the human delta subtype 2 opioid receptor. Membranes from Chinese Hamster Ovary cells expressing the human delta subtype 2 opioid receptor (Perkin Elmer #RBHODM400UA) are homogenized in assay buffer (50 mM Tris, pH 7.5 with 5 mM MgCl2) using a glass tissue grinder, Teflon pestle and a Steadfast Stirrer (Fisher Scientific). The concentration of membranes is adjusted to 100 μg/mL in assay buffer and 100 μL is dispensed into each well of the assay plate, a 96 well round bottom polypropylene plate. Compounds to be tested are solubilized in DMSO (Pierce), 10 mM, then diluted in assay buffer to 6× the desired final concentration. The ligand, ^3H-Naltrindole (Perkin Elmer #NET-1065) is also diluted in assay buffer to 6 nM. In a second 96 well round bottom polypropylene plate, known as the premix plate, 60 μL of the 6× compound is combined with 60 μL of 6 nM ^3H-Naltrindole. From this premix plate 50 μL is transferred to the assay plate containing the membranes, in duplicate. The assay plate is incubated for 30 min at room temperature. A GF/C 96 well filter plate (Perkin Elmer #6005174) is pretreated with 0.3% polyethylenimine for 30 min. The contents of the assay plate are filtered through the filter plate using a Packard Filtermate Harvester, and washed 3 times with 0.9% saline that is 4° C. The filter plate is dried, the underside sealed, and 30 μL Microscint20 (Packard #6013621) added to each well. A Topcount-NXT Microplate Scintillation Counter (Packard) is used to measure emitted energies in the range of 2.9 to 35 KeV. Results are compared to maximum binding, wells receiving no inhibitors. Nonspecific binding is determined in the presence of 1 μM unlabelled Naltrindole (Sigma #N115).

[2] = test system: novel environment-stressed mice; experiment: In Vivo Assay-Stress-Induced Fecal Output (Fecal Output for 1 hr); parameters: species or system mouse; conditions: for Fecal Output (# pellets) cpd: novel environment-stressed mice; for Fecal Output (# pellets) cpd / response vs control in vivo at 10 mg/kg / response vs control in vivo at 30 mg/kg / Fecal Output cpd % control / Fecal Output cpd % NES: 1 hr; for response vs control in vivo at 10 mg/kg / response vs control in vivo at 30 mg/kg: Mus musculus, po, 1 h; for # of pellets, Compound (m) 3.0 / Fecal pellet output, Compound (% control) 3.0 / Fecal pellet output, Compound (% NES) 3.0: dose 3.0, oral; for # of pellets, Compound (m) 3.0 / Fecal pellet output, Compound (% control) 3.0 / # of pellets, Compound (m) 10.0 / Fecal pellet output, Compound (% control) 10.0 / # of pellets, Compound (m) 30.0 / Fecal pellet output, Compound (% control) 30.0: NES mice; for # of pellets, Compound (m) 3.0 / # of pellets, Compound (m) 10.0 / # of pellets, Compound (m) 30.0: fecal output 1 hr; for Fecal pellet output, Compound (% control) 3.0 / Fecal pellet output, Compound (% control) 10.0 / Fecal pellet output, Compound (% control) 30.0: vs acclimated control; for Fecal pellet output, Compound (% NES) 3.0 / Fecal pellet output, Compound (% NES) 10.0 / Fecal pellet output, Compound (% NES) 30: vs vehicle NES group; for # of pellets, Compound (m) 10.0 / Fecal pellet output, Compound (% control) 10.0 / Fecal pellet output, Compound (% NES) 10.0: dose 10.0, oral; for # of pellets, Compound (m) 30.0 / Fecal pellet output, Compound (% control) 30.0: dose 30.0, oral; for Fecal pellet output, Compound (% NES) 30: dose 30, oral
Excerpt: This assay evaluates the fecal output in novel environment-stressed mice to that of acclimated controls.
Methods: Adult, male, Crl:CD-1(ICR) mice, weighing ˜30-35 g were used in these studies, with a minimum of 10 mice per dose group. One group of mice was assigned as acclimated, or “non-stressed” controls. These control mice were transported from colony housing, where they were housed 3/cage in polycarbonate cages with access to food and water ad lib. to the procedure room. The mice were removed from their home cages and individually housed in 20 cm wide×20 cm deep×15 cm tall cages, equipped with a wire mesh bottom where they remained for a 16-18 hr period of acclimation to their novel environment. Mice were allowed access to food and water ad lib. during acclimation. The other groups of mice were assigned as non-acclimated, or “stressed” treatment groups. Each mouse in each group was weighed and vehicle, or test compound, was intragastrically administered by oral intubation in 0.5% methylcellulose. Mice were allowed access to water only ad lib. during the test period. After compound administrations, acclimated (control) as well as non-acclimated (stressed) mice were individually housed in a 20 cm wide×20 cm deep×15 cm tall cage, with a wire mesh bottom. An absorbant cardboard is placed beneath the cages. The number of fecal pellets excreted by each mouse was determined at hourly intervals following placement of the mice in the individual cages. Raw Data=# of fecal pellets/mouse/hr. […]

human mu opioid receptor = molecular target: T2, human mu opioid receptor (Homo sapiens, UniProt P35372); experiment: Human Mu Opioid Receptor Binding Assay (CHO membranes, 3H-Damgo); conditions: read-out: hKi μ
T2 construct: purchased Perkin Elmer RBHOMM400UA; host or cells: Chinese Hamster Ovary cells (recombinant expression)
In short: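 Membranes from CHO cells expressing human mu opioid receptor, 300 μg/mL, in 50 mM Tris pH 7.5, 5 mM MgCl2. Incubated with compound and ³H-Damgo (3.6 nM before mixing) for 2 h at room temperature, filtered, counted by scintillation. Nonspecific binding with 1 μM unlabelled Damgo.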

[3] = 30 mg/kg oral, relative to acclimated control, read-out: Fecal Output cpd % control
[4] = 30 mg/kg oral, relative to novel environment stress (NES) vehicle group, read-out: Fecal Output cpd % NES
[5] = 30 mg/kg oral, relative to acclimated control
[6] = 30 mg/kg oral, relative to novel environment stress (NES) vehicle group

T1 sequence (P41143 whole entry): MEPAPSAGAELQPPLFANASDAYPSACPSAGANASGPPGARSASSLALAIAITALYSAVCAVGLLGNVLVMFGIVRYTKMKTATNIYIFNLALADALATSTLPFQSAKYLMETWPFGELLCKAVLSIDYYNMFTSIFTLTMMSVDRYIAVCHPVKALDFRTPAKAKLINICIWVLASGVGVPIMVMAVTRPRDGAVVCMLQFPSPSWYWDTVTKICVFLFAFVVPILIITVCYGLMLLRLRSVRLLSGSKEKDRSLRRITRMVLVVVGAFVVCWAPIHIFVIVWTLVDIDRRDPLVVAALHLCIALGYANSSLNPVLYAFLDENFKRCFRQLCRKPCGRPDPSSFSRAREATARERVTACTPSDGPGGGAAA
T2 sequence (P35372 whole entry): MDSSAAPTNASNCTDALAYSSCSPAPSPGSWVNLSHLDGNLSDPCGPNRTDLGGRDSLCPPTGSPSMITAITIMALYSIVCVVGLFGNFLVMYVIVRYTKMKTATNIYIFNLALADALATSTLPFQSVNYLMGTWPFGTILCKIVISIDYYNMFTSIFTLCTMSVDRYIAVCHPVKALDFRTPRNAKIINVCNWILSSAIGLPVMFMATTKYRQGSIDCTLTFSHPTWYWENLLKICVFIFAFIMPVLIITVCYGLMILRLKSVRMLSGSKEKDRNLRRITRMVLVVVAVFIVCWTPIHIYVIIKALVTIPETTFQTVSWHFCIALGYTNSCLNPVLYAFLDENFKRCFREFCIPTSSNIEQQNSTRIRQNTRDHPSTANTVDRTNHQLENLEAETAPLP

Compound	Ki [1]	Fecal Output (# pellets) cpd ([2]; 30 mg/kg oral)	response vs control in vivo at 30 mg/kg [2, 3]	response vs control in vivo at 30 mg/kg [2, 4]	Ki (human mu opioid receptor)	also measured
Cc1cc(C(N)=O)cc(C)c1C[C@H](N)C(=O)N(C(C)C)[C@@H](C)c1nc(-c2ccccc2)c[nH]1 [Cpd 143]	69 nM	5.2 pellets	69.3%	56.5%	1.6 nM	Fecal Output (# pellets) cpd ([2]; 10 mg/kg oral): 9.1 pellets; response vs control in vivo at 10 mg/kg ([2]; 10 mg/kg oral, relative to acclimated control, read-out: Fecal Output cpd % control): 246%; response vs control in vivo at 10 mg/kg ([2]; 10 mg/kg oral, relative to novel environment stress (NES) vehicle group, read-out: Fecal Output cpd % NES): 66.9%
Cc1cc(O)cc(C)c1C[C@H](N)C(=O)N(Cc1nc(-c2cccc(C(=O)O)c2)c(C)[nH]1)C(C)C [Cpd 133]	108 nM	9.9 pellets	180%	81.8%	11.5 nM	–
Cc1cc(C(N)=O)cc(C)c1C[C@H](N)C(=O)N(C(C)c1ccccc1)[C@@H](C)c1nc(-c2ccccc2)c[nH]1 (single isomer, unassigned) [Cpd 111]	307 nM	4.4 pellets	–	–	6.4 nM	Fecal Output cpd % control [2, 5]: 60.8%; Fecal Output cpd % NES [2, 6]: 42.5%
Cc1cc(C(N)=O)cc(C)c1C[C@H](N)C(=O)N(Cc1nc(-c2ccccc2)c[nH]1)[C@H](C)c1ccccc1 [Cpd 94]	403 nM	9.4 pellets	348%	103%	4.1 nM	–
Cc1cc(O)cc(C)c1C[C@H](N)C(=O)N(Cc1ccccn1)[C@@H](C)c1nc(-c2ccccc2)c[nH]1 [Cpd 93]	9.5 nM	5.0 pellets	139%	45%	0.9 nM	# of pellets, Compound (m) 3.0 [2]: 6.2; Fecal pellet output, Compound (% control) 3.0 [2]: 229.6 % control; Fecal pellet output, Compound (% NES) 3.0 [2]: 74.7 % NES; # of pellets, Compound (m) 10.0 [2]: 5.5; Fecal pellet output, Compound (% control) 10.0 [2]: 203.7 % control; Fecal pellet output, Compound (% NES) 10.0 [2]: 66.27 % NES; # of pellets, Compound (m) 30.0 [2]: 3.2; Fecal pellet output, Compound (% control) 30.0 [2]: 119 % control; Fecal pellet output, Compound (% NES) 30 [2]: 38.55 % NES
Cc1cc(C(N)=O)cc(C)c1C[C@H](N)C(=O)N(Cc1ccccc1)[C@@H](C)c1nc(-c2ccc(Cl)cc2)c(C)[nH]1 [Cpd 58]	70 nM	3.9 pellets	170%	55.7%	8.5 nM	–
Cc1cc(O)cc(C)c1C[C@H](N)C(=O)N(Cc1ccoc1)[C@@H](C)c1nc(-c2ccccc2)c[nH]1 [Cpd 55]	44 nM	8.3 pellets	213%	58.9%	1.8 nM	–
Cc1cc(C(N)=O)cc(C)c1C[C@H](N)C(=O)N(C)[C@H](C)c1nc(-c2ccccc2)c[nH]1 [Cpd 144]	251 nM	11.5 pellets	311%	84.6%	1.3 nM	–
CNc1ccc(CN(C(=O)C(N)Cc2c(C)cc(O)cc2C)C(C)c2nc(-c3ccccc3)c[nH]2)cc1 (stereo not drawn) [Cpd 78]	28.9 nM	3.3 pellets	91.7%	45.2%	2.4 nM	–
Cc1cc(C(N)=O)cc(C)c1C[C@H](N)C(=O)N(C(C)c1ccccc1)[C@@H](C)c1nc(-c2ccccc2)c[nH]1 (single isomer, unassigned) [Cpd 112]	135 nM	7.2 pellets	–	–	9.5 nM	Fecal Output cpd % control [2, 5]: 100.0%; Fecal Output cpd % NES [2, 6]: 69.9%
Cc1cc(O)cc(C)c1C[C@H](N)C(=O)N(Cc1c(Cl)cccc1Cl)[C@@H](C)c1nc(-c2ccccc2)c[nH]1 [Cpd 97]	6.3 nM	4.8 pellets	65.8%	37.2%	19.2 nM	# of pellets, Compound (m) 3.0 [2]: 14 and 9.1; Fecal pellet output, Compound (% control) 3.0 [2]: 226.2 % control and 189.6 % control; Fecal pellet output, Compound (% NES) 3.0 [2]: 119 % NES and 90.1 % NES; # of pellets, Compound (m) 10.0 [2]: 7.5 and 10.4; Fecal pellet output, Compound (% control) 10.0 [2]: 123.0 % control and 216.7 % control; Fecal pellet output, Compound (% NES) 10.0 [2]: 64.66 % NES and 103 % NES; # of pellets, Compound (m) 30.0 [2]: 3.5 and 2.3; Fecal pellet output, Compound (% control) 30.0 [2]: 57 % control and 48 % control; Fecal pellet output, Compound (% NES) 30 [2]: 30.17 % NES and 22.77 % NES
Cc1cc(C(N)=O)cc(C)c1C[C@H](N)C(=O)N(Cc1ccccc1)Cc1nc(-c2ccccc2)c[nH]1 [Cpd 107]	584 nM	13.1 pellets	230%	87.3%	2.95 nM	–
Cc1cc(O)cc(C)c1C[C@H](N)C(=O)N(Cc1ccncc1)[C@@H](C)c1nc(-c2ccccc2)c[nH]1 [Cpd 57]	2.2 nM	7.6 pellets	195%	53.9%	0.66 nM	–
Cc1cc(O)cc(C)c1C[C@H](N)C(=O)N(Cc1ccc(Cl)cc1Cl)[C@@H](C)c1nc(-c2ccccc2)c[nH]1 [Cpd 103]	9.7 nM	10.2 pellets	140%	79.1%	23 nM	–
Cc1cc(C(N)=O)cc(C)c1C[C@H](N)C(=O)N(Cc1nc(-c2ccccc2)c[nH]1)C(C)C [Cpd 86]	400 nM	–	–	–	1 nM	–

From patent US10213415B2, “Compounds as opioid receptor modulators” (JANSSEN PHARMACEUTICA NV, priority 2004, dated 2019)
